In patent US20050112183A1, “Compositions and methods for treating neuropathic sensory loss” (priority 2003, published 2005):

System: neuropathically induced negative sensory phenomena (NSP)
Test: application of local anesthetic to diabetic neuropathy patients, patient-reported
Assay type: in vivo
Conditions: some diabetic neuropathy patients; local application of the anesthetic
From the text: It has previously been assumed that positive sensory phenomena (“PSP”) is caused by an increase in spontaneous nerve discharge from damaged and dysfunctional peripheral nerves. […] Based on the current understanding of the underlying etiology of NSP it would be unexpected that an anesthetic would effectively mitigate the negative effects of NSP. It has now been found, however, that the application of local anesthetics such as lidocaine can effectively treat NSP. For example, some diabetic neuropathy patients reported both pain relief and improved NSP, that is, the patients experienced pain relief, improvement of sensory loss (decreased numbness), and improved tactile response (they could better feel objects touching their skin). Thus the anesthetic as applied in this embodiment decreased numbness. This is contrary to all prior teachings about anesthetics.

Structure (SMILES): CCN(CC)CC(=O)Nc1c(C)cccc1C [lidocaine, 2-(diethylamino)-N-(2,6-dimethylphenyl)-acetamide]
- negative sensory phenomena (NSP: numbness, sensory loss, tactile response) as reported by patients: improved NSP
- pain as reported by patients: pain relief
